{"source": "paper PMC2674504", "about": "“Foam nest components of the túngara frog: a cocktail of proteins conferring physical and biological resilience” (Proceedings of the Royal Society B: Biological Sciences, 2009)", "key": {"Rsn-4 [1]": {"target": "T1, Rsn-4 (Engystomops pustulosus, UniProt B5DCK4)", "T1 construct": "dimer or higher order", "T1 sequence (B5DCK4 20-193)": "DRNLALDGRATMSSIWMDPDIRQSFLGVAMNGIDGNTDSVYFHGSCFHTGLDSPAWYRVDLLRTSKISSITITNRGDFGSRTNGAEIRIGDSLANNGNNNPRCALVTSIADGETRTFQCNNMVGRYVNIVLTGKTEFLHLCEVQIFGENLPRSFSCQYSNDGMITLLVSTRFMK", "experiment": "haemagglutination inhibition (human erythrocytes); lactose-agarose affinity chromatography eluted with […] lactose", "format": "binding", "details": "20 mM sugar; 10 mM HEPES, 150 mM NaCl, 2 mM CaCl2; room temperature"}, "Rsn-4 [2]": {"target": "T1, Rsn-4", "experiment": "haemagglutination inhibition (human erythrocytes)", "format": "cell-based", "details": "20 mM sugar; 10 mM HEPES, 150 mM NaCl, 2 mM CaCl2; room temperature; protein refolded in buffer with 20 mM galactose"}, "papain": {"target": "T2, papain (Carica papaya, UniProt P00784)", "T2 construct": "commercial enzyme from papaya latex (Sigma)", "T2 sequence (P00784 134-345)": "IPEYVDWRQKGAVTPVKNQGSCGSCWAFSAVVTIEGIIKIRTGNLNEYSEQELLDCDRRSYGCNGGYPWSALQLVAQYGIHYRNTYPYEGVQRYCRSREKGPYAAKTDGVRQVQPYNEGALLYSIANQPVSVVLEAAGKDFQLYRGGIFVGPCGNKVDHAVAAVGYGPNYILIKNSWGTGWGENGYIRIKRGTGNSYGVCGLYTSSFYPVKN", "experiment": "fluorogenic proteolysis assay (ex […] nm, em […] nm)", "format": "biochemical", "details": "0.1 M acetate pH 5.0, 10 mM dithiothreitol, 2 mM EDTA, 30 °C; mere turnover"}}, "note": "Where a SMILES comes first, the peptide text is derived from it. The star is where a group is joined. AMC = Cc1cc(=O)oc2cc(N*)ccc12; Cbz = O=C(OCc1ccccc1)*", "data": [{"smiles": "OC[C@H]1O[C@@H](O[C@H]2[C@H](O)[C@@H](O)C(O)O[C@@H]2CO)[C@H](O)[C@@H](O)[C@H]1O", "note": "(stereo partly drawn) [lactose]", "values": [{"measurement": "haemagglutination inhibition (human erythrocytes); lactose-agarose affinity chro", "setting": "Rsn-4 [1]", "value": "Rsn-4 could be inhibited with lactose and galactose"}]}, {"smiles": "OC[C@H]1OC(O)[C@H](O)[C@@H](O)[C@H]1O", "note": "(stereo partly drawn) [galactose]", "values": [{"measurement": "haemagglutination inhibition (human erythrocytes)", "setting": "Rsn-4 [2]", "value": "agglutination by Rsn-4 was unaffected by fucose but completely inhibited by galactose"}]}, {"smiles": "Cc1cc(=O)oc2cc(NC(=O)[C@H](CCCNC(=N)N)NC(=O)[C@H](Cc3ccccc3)NC(=O)OCc3ccccc3)ccc12", "note": "[Z-Phe-Arg 7-amido-4-methylcoumarin] (Cbz-Phe-Arg-{AMC})", "values": [{"measurement": "fluorogenic proteolysis assay (ex 370 nm, em 470 nm)", "setting": "papain", "value": "papain) was investigated using fluorogenic or chromogenic substrates, Z-Phe-Arg 7-amido-4-methylcoumarin"}]}]}
